Our source for the EC50, Emax and activation values is US20230159509A1 (Amathus Therapeutics, Inc., priority 2020, published 2023).

Where only a bound is given, the exact number is not on record here.

Experiment [1] addresses T1, TRAP1 enzyme (Homo sapiens, UniProt Q12931).
T1 construct: 150 nM Trap1 enzyme was incubated with various concentrations of the test compound
T1 sequence (Q12931 60-704): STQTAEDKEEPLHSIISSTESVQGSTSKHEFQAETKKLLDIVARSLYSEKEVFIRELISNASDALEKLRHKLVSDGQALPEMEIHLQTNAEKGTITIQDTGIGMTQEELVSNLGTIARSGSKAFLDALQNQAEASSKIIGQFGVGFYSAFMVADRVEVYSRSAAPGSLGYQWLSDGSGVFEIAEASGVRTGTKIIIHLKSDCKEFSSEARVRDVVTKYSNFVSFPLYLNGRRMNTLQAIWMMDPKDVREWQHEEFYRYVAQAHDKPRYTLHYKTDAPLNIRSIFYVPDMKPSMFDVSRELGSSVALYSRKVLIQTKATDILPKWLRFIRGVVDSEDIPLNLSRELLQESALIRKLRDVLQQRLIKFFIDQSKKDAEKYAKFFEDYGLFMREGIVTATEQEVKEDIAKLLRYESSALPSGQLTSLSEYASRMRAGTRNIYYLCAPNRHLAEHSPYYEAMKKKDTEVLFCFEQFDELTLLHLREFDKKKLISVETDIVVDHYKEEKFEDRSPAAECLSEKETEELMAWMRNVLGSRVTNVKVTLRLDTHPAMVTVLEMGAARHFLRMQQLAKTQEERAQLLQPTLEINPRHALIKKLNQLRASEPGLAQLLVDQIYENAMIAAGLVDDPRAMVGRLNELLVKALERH
The experiment is described as follows: Malachite green phosphate assay of TRAP1 ATPase activity. The class given is biochemical. The note with it: for EC50: concentration for half maximal activation, read-out: Malachite Green Fluor DRC: GeoMean EC50; for Emax: maximal percent activation, read-out: Malachite Green Fluor DRC: Mean Emax. On the procedure: The Potency of test compounds to modulate the ATPase activity of TRAP1 enzyme was evaluated using malachite green phosphatase assay. The assay is based on quantification of the green complex formed between Malachite Green, molybdate and inorganic phosphate generated in the phosphatase reaction. Assays were performed using a Malachite Green assay kit. All the assays were carried out in a 96-well transparent plate. The buffer used was 50 mM HEPES (pH 7.5), 20 mM KCl, 4 mM MgCl2 and 0.05% BSA. 150 nM Trap1 enzyme was incubated with various concentrations of the test compound (0.78 μM-100 μM) at 37° C. for 30 mins. 20 μM ATP was added to each well (except blank wells) to start the reaction and the plate was then incubated at 37° C. for 180 mins. 10 μl of the reaction volume of each sample was then transferred to a white 384-well proxiplate in quadruplets. 2.5 μl of Malachite Green reagent was added to all the wells and the plate was equilibrated for 15 mins. The reaction was stopped by adding 12% H2SO4 and the plate was read for fluorescence at 620 nm (λex=573 nm). The amount of phosphate released was estimated from a phosphate standard curve generated at the same experimental conditions. Emax (Maximal percent activation) and EC50 (concentration of test compound for half maximal activation) were estimated by fitting the dose response data to a sigmoidal curve fitting equation using Graphpad Prism software V.7.0.

Experiment [2] deals with T1, TRAP1 enzyme. As to the kind of experiment: ADP Glo assay of TRAP1 ATPase activity. In kind it is biochemical. The note with it: for EC50: concentration for half maximal activation, read-out: ADP GLO DRC: GeoMean EC50; for Emax: maximal percent activation, read-out: ADP GLO DRC: Mean Emax; for activation at 50 µM: 1 h, compound concentration 50 μM, read-out: ADP-Glo Percent Activation at 50 μM. An outline of the steps: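 ADP-Glo luminescence quantifying ADP from 150 nM TRAP1 preincubated 30 min at 37° C with compound (0.79–100 μM), then 20 μM ATP for 60 min at 37° C. Buffer: 25 mM Pipes pH 7.5, 40 mM KCl, 0.05 mM MgCl2, EGTA, BSA, detergents. ADP from ATP/ADP standard curve; Emax and EC50 from sigmoidal fit.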

With `O=C(Nc1cccc(S(=O)(=O)Nc2ccc(Cl)cc2)n1)c1cnc(-c2ccccc2)[nH]1` [compound 612, N-(6-(N-(4-chlorophenyl)sulfamoyl)pyridin-2-yl)-2-phenyl-1H-imidazole-5-carboxamide], at TRAP1 enzyme [1], the EC50 (commonly the concentration at which the effect is half-maximal) fell in the range of 20 to 100 µM and the Emax – broadly, the maximal effect, on the per cent scale that the assay sets – is 200 to 300%.

In the case of `COc1ncc(NC(=O)c2ncc(-c3ccccc3)o2)cc1S(=O)(=O)Nc1c(Cl)cccc1Cl` [compound 670, N-(5-(N-(2,6-dichlorophenyl)sulfamoyl)-6-methoxypyridin-3-yl)-5-phenyloxazole-2-carboxamide], at TRAP1 enzyme [2], the EC50 was in the range of 20 to 100 µM and the Emax fell in the range of 160 to 199%. Besides, on TRAP1 enzyme [1], the EC50 was in the range of 20 to 100 µM and the Emax lay in the range of 200 to 300%.

With `Cc1cccc(C)c1NS(=O)(=O)c1cncc(NC(=O)c2cnc(-c3ccccc3)[nH]2)c1` [compound 592, N-(5-(N-(2,6-dimethylphenyl)sulfamoyl)pyridin-3-yl)-2-phenyl-1H-imidazole-5-carboxamide], on TRAP1 enzyme [1], the EC50 was in the range of 20 to 100 µM and the Emax lay in the range of 160 to 199%.

`COc1ncc(NC(=O)c2ncc(-c3ccccc3)o2)cc1S(=O)(=O)Nc1ccc(C(F)(F)F)cc1` [compound 594, N-(6-methoxy-5-(N-(4-(trifluoromethyl)phenyl)sulfamoyl)pyridin-3-yl)-5-phenyloxazole-2-carboxamide]: on TRAP1 enzyme [1], the EC50 is 20 to 100 µM and the Emax lay within 119 to 159%.

For the molecule `COc1ncc(NC(=O)c2ncc(-c3ccccc3)o2)cc1S(=O)(=O)Nc1ccc(Cl)cc1` [compound 535, N-(5-(N-(4-chlorophenyl)sulfamoyl)-6-methoxypyridin-3-yl)-5-phenyloxazole-2-carboxamide], at TRAP1 enzyme [1], the EC50 lay in the range of 10 to 20 µM and the Emax is 160 to 199%.

With `COc1ncc(NC(=O)c2cnc(-c3ccccc3)o2)cc1S(=O)(=O)Nc1ccc(C(F)(F)F)cc1` [compound 604, N-(6-methoxy-5-(N-(4-(trifluoromethyl)phenyl)sulfamoyl)pyridin-3-yl)-2-phenyloxazole-5-carboxamide], at TRAP1 enzyme [1], the EC50 was in the range of 20 to 100 µM and the Emax lay within 160 to 199%.

`COc1ncc(NC(=O)C(C)n2cc(Br)cn2)cc1S(=O)(=O)Nc1ccc(Cl)cc1` (stereo not shown) [compound 1213, (4-bromo-1H-pyrazol-1-yl)-N-(5-(N-(4-chlorophenyl)sulfamoyl)-6-methoxypyridin-3-yl)propanamide]: on TRAP1 enzyme [2], the EC50 lay within 20 to 100 µM and the Emax was 119 to 159%.

With `COc1ncc(NC(=O)c2ccnn2CC(F)(F)F)cc1S(=O)(=O)Nc1c(C)cccc1C` [compound 2651], the activation at 50 µM at TRAP1 enzyme [2] lay within 181 to 352%.

Consider `COc1ncc(NC(=O)c2coc(-c3ccccc3)n2)cc1S(=O)(=O)Nc1c(C)cccc1C1CC1` [compound 1986, N-(5-(N-(2-cyclopropyl-6-methylphenyl)sulfamoyl)-6-methoxypyridin-3-yl)-2-phenyloxazole-4-carboxamide], for which, at TRAP1 enzyme [2], the EC50 was less than 10 µM and the Emax is 200 to 300%.

On to `COc1ncc(NC(=O)c2nn(C)c3c2CCC3)cc1S(=O)(=O)Nc1c(C)cccc1C` [compound 2612], for which the activation at 50 µM on TRAP1 enzyme [2] was in the range of 151 to 180%.

For the molecule `COc1ncc(NC(=O)c2ccc3c(c2)NC(=O)C3)cc1S(=O)(=O)Nc1c(C)cccc1C` [compound 2727], the activation at 50 µM at TRAP1 enzyme [2] is 181 to 352%.

Regarding `COc1ncc(NC(=O)c2cnn(C3CC3)c2)cc1S(=O)(=O)Nc1c(C)cccc1C` [compound 2552], at TRAP1 enzyme [2], the activation at 50 µM lay within 151 to 180%.

As for `COc1ncc(NC(=O)c2ccccc2[S@+](C)[O-])cc1S(=O)(=O)Nc1c(C)cccc1C` [compound 2581], the activation at 50 µM on TRAP1 enzyme [2] is 151 to 180%.

On to `COc1ncc(NC(=O)c2ccnc(N3CCCCC3)c2)cc1S(=O)(=O)Nc1c(C)cccc1C` [compound 2729], for which the activation at 50 µM on TRAP1 enzyme [2] lay within 181 to 352%.

As to `COc1ncc(NC(=O)c2cccc(CN3CCOCC3)c2)cc1S(=O)(=O)Nc1c(C)cccc1C` [compound 2572], the activation at 50 µM at TRAP1 enzyme [2] is 181 to 352%.

Consider `COc1cccc(C)c1NS(=O)(=O)c1cc(NC(=O)c2coc(-c3ccccc3)n2)cnc1OC` [compound 1484, N-(6-methoxy-5-(N-(2-methoxy-6-methylphenyl)sulfamoyl)pyridin-3-yl)-2-phenyloxazole-4-carboxamide], for which, on TRAP1 enzyme [2], the EC50 is less than 10 µM and the Emax lay within 160 to 199%.

Turning to `COc1ncc(NC(=O)c2ccccc2C(=O)c2ccccc2)cc1S(=O)(=O)Nc1ccc(Cl)cc1` [compound 1197, 2-benzoyl-N-(5-(N-(4-chlorophenyl)sulfamoyl)-6-methoxypyridin-3-yl)benzamide], at TRAP1 enzyme [2], the EC50 is less than 10 µM and the Emax was 160 to 199%.

`CCc1cc(C(=O)Nc2cnc(OC)c(S(=O)(=O)Nc3c(C)cccc3C)c2)no1` [compound 2690]: the activation at 50 µM on TRAP1 enzyme [2] is 151 to 180%.

For `COc1ncc(NC(=O)c2ncn(C(C)C)n2)cc1S(=O)(=O)Nc1c(C)cccc1C` [compound 2611], at TRAP1 enzyme [2], the activation at 50 µM was in the range of 120 to 150%.

In the case of `COc1ncc(NC(=O)c2cnn(C3CCOCC3)c2)cc1S(=O)(=O)Nc1c(C)cccc1C` [compound 2587], the activation at 50 µM at TRAP1 enzyme [2] fell in the range of 120 to 150%.

With `COc1ncc(NC(=O)c2csc(-c3ccccc3)n2)cc1S(=O)(=O)Nc1ccnc(C(F)(F)F)c1` [compound 1895], on TRAP1 enzyme [2], the EC50 was in the range of 20 to 100 µM and the maximal response (Emax) lay in the range of 160 to 199%.

For `COc1ncc(NC(=O)c2cc(C(F)(F)F)n[nH]2)cc1S(=O)(=O)Nc1c(C)cccc1C` [compound 2695], the activation at 50 µM at TRAP1 enzyme [2] fell in the range of 151 to 180%.

For the molecule `CCc1cccc(CC)c1NS(=O)(=O)c1cc(NC(=O)c2csc(-c3ccccc3)n2)cnc1OC` [compound 1418, N-(5-(N-(2,6-diethylphenyl)sulfamoyl)-6-methoxypyridin-3-yl)-2-phenylthiazole-4-carboxamide], at TRAP1 enzyme [2], the EC50 is less than 10 µM and the Emax is 119 to 159%.

With `COc1ncc(NC(=O)c2ccc(S(=O)(=O)C(F)F)cc2)cc1S(=O)(=O)Nc1c(C)cccc1C` [compound 2640], the activation at 50 µM at TRAP1 enzyme [2] was in the range of 151 to 180%.

On to `COc1ncc(NC(=O)c2ccc(C(C)(C)O)cc2)cc1S(=O)(=O)Nc1c(C)cccc1C` [compound 2787], for which, on TRAP1 enzyme [2], the activation at 50 µM is 151 to 180%.

Take `COc1ncc(NC(=O)c2ncc(-c3ccccc3)o2)cc1S(=O)(=O)Nc1cccc(C#N)n1` [compound 2148]: at TRAP1 enzyme [2], the EC50 was in the range of 20 to 100 µM and the Emax fell in the range of 160 to 199%.

Turning to `COc1ncc(NC(=O)c2csc(-c3cccc(OCC4COC(C)(C)O4)n3)n2)cc1S(=O)(=O)Nc1c(C)cccc1C` (stereo not shown) [compound 2454], on TRAP1 enzyme [2], the EC50 was less than 10 µM and the Emax is 119 to 159%.
